Values of other authors as cited in PubChem BioAssay AID1259409 (Chemical Carcinogenesis Research Information System (CCRIS), 2018).

Test system: rodent chemically induced tumor inhibition, incidence and multiplicity
Assay: CCRIS tumor inhibitor studies

Compound: c1ccc2c(c1)c1cccc3ccc4cccc2c4c31
- tumour outcome (control, treated, inhibition, significance) (Carcinogen: BENZO[A]PYRENE, 50-32-8, Dose [Inhibitor]: 5 UG IN 0.1 ML ACETONE 3/WK ADMINISTERED SIMULTANEOUSLY WITH CARCINOGEN FOR DURATION OF STUDY (STUDY DURATION: 368 D), Route [Inhibitor]: DERMAL, Species: MOUSE, Strain/Sex: ICR/FEMALE, Target Tissue: Type of Lesion: SKIN: PAPILLOMA, Dose [Carcinogen]: 5 UG IN 0.1 ML ACETONE 3/WK FOR DURATION OF STUDY, Promoter: NONE USED): 14/50 (28%), 24/50 (48%), -71%, not calculated
- tumour outcome (control, treated, inhibition, significance) (Carcinogen: BENZO[A]PYRENE, 50-32-8, Dose [Inhibitor]: 5 UG IN 0.1 ML ACETONE 3/WK ADMINISTERED SIMULTANEOUSLY WITH CARCINOGEN FOR DURATION OF STUDY (STUDY DURATION: 368 D), Route [Inhibitor]: DERMAL, Species: MOUSE, Strain/Sex: ICR/FEMALE, Target Tissue: Type of Lesion: SKIN: SQUAMOUS CARCINOMA, Dose [Carcinogen]: 5 UG IN 0.1 ML ACETONE 3/WK FOR DURATION OF STUDY, Promoter: NONE USED): 10/50 (20%), 9/50 (18%), 10%, not calculated
- tumour outcome (control, treated, inhibition, significance) (Carcinogen: BENZO[A]PYRENE, 50-32-8, Dose [Inhibitor]: 15 UG IN 0.1 ML ACETONE 3/WK ADMINISTERED SIMULTANEOUSLY WITH CARCINOGEN FOR DURATION OF STUDY (STUDY DURATION: 368 D), Route [Inhibitor]: DERMAL, Species: MOUSE, Strain/Sex: ICR/FEMALE, Target Tissue: Type of Lesion: SKIN: PAPILLOMA, Dose [Carcinogen]: 5 UG IN 0.1 ML ACETONE 3/WK FOR DURATION OF STUDY, Promoter: NONE USED): 14/50 (28%), 33/50 (66%), -136%, not calculated
- tumour outcome (control, treated, inhibition, significance) (Carcinogen: BENZO[A]PYRENE, 50-32-8, Dose [Inhibitor]: 15 UG IN 0.1 ML ACETONE 3/WK ADMINISTERED SIMULTANEOUSLY WITH CARCINOGEN FOR DURATION OF STUDY (STUDY DURATION: 368 D), Route [Inhibitor]: DERMAL, Species: MOUSE, Strain/Sex: ICR/FEMALE, Target Tissue: Type of Lesion: SKIN: SQUAMOUS CARCINOMA, Dose [Carcinogen]: 5 UG IN 0.1 ML ACETONE 3/WK FOR DURATION OF STUDY, Promoter: NONE USED): 10/50 (20%), 27/50 (54%), -170%, not calculated

Compound: CC(=O)O[C@@H]1[C@H]2[C@@H](OC(=O)c3ccccc3)[C@@H](OC(=O)c3ccccc3)[C@]3(C)[C@@H](OC(=O)c4ccccc4)[C@@H](OC(=O)c4ccccc4)C[C@@H](C)[C@@]13OC2(C)C
- tumour outcome (control, treated, inhibition, significance) (Carcinogen: 7,12-DIMETHYLBENZ[A]ANTHRACENE, 57-97-6, Dose [Inhibitor]: 0, 85 NMOL IN 0.1 ML ACETONE 2/WK APPLIED 1 HR POST EACH PROMOTER DOSE BEGINNING 1 WK POST CARCINOGEN DOSE AND CONTINUIN, Route [Inhibitor]: DERMAL, Species: MOUSE, Strain/Sex: ICR/FEMALE, Target Tissue: Type of Lesion: SKIN: TUMOR, Dose [Carcinogen]: 390 NMOL IN 0.1 ML ACETONE ONCE, Promoter: 12-O-TETRADECANOYLPHORBOL-13-ACETATE, 16561-29-8): 100%, 52%, 48%, not calculated
- tumour outcome (control, treated, inhibition, significance) (Carcinogen: 7,12-DIMETHYLBENZ[A]ANTHRACENE, 57-97-6, Dose [Inhibitor]: 0, 85 NMOL IN 0.1 ML ACETONE 2/WK APPLIED 1 HR PRIOR TO EACH PROMOTER DOSE BEGINNING 1 WK POST CARCINOGEN DOSE AND CONTI, Route [Inhibitor]: DERMAL, Species: MOUSE, Strain/Sex: ICR/FEMALE, Target Tissue: Type of Lesion: SKIN: TUMOR, Dose [Carcinogen]: 390 NMOL IN 0.1 ML ACETONE ONCE, Promoter: 12-O-TETRADECANOYLPHORBOL-13-ACETATE, 16561-29-8): 100%, 86%, 14%, not calculated

Compound: ClC(Cl)(Cl)Cl
- tumour outcome (control, treated, inhibition, significance) (Carcinogen: 1,2-DIMETHYLHYDRAZINE, 540-73-8, Dose [Inhibitor]: 0, 1.5 ML/KG BW IN CORN OIL ADMINISTERED 2 HR PRIOR TO EACH CARCINOGEN DOSE (STUDY DURATION: 8 MO), Route [Inhibitor]: GAVAGE, Species: RAT, Strain/Sex: BD6/MALE, Target Tissue: Type of Lesion: INTESTINE: TUMOR, Dose [Carcinogen]: 20 MG/KG BW 1/WK FOR 20 WK, Promoter: NONE USED): 100%, 0%, 100%, not calculated

Compound: CCC(C)(C)C(=O)O[C@H]1C[C@@H](C)C=C2C=C[C@H](C)[C@H](CC[C@@H]3C[C@@H](O)CC(=O)O3)[C@H]21
- tumour outcome (control, treated, inhibition, significance) (Carcinogen: 1,2-DIMETHYLHYDRAZINE, 540-73-8, Dose [Inhibitor]: 0, 0.02% IN DIET FOR 25 WK (STUDY DURATION: 25 WK), Route [Inhibitor]: ORAL, Species: MOUSE, Strain/Sex: ICR/FEMALE, Target Tissue: Type of Lesion: COLON: TUMOR, Dose [Carcinogen]: 10 MG/KG BW 1/WK FOR 15 WK, Promoter: NONE USED): 16/30 (53%), 12/30 (40%), 25%, not significant
- tumour outcome (control, treated, inhibition, significance) (Carcinogen: 1,2-DIMETHYLHYDRAZINE, 540-73-8, Dose [Inhibitor]: 0, 0.1% IN DIET FOR 25 WK (STUDY DURATION: 25 WK), Route [Inhibitor]: ORAL, Species: MOUSE, Strain/Sex: ICR/FEMALE, Target Tissue: Type of Lesion: COLON: TUMOR, Dose [Carcinogen]: 10 MG/KG BW 1/WK FOR 15 WK, Promoter: NONE USED): 16/30 (53%), 11/30 (37%), 30%, not significant

Compound: CC1=C(/C=C/C(C)=C/C=C/C(C)=C/C=C/C=C(C)/C=C/C=C(C)/C=C/C2=C(C)C(=O)[C@@H](O)CC2(C)C)C(C)(C)C[C@H](O)C1=O
- tumour outcome (control, treated, inhibition, significance) (Carcinogen: 4-NITROQUINOLINE-1-OXIDE, 56-57-5, Dose [Inhibitor]: 0, 100 PPM IN DIET FOR 10 WK BEGINNING PRIOR TO CARCINOGEN TREATMENT (STUDY DURATION: 32 WK), Route [Inhibitor]: ORAL, Species: RAT, Strain/Sex: F344/MALE, Target Tissue: Type of Lesion: TONGUE: PAPILLOMA, Dose [Carcinogen]: 20 PPM IN DRINKING WATER FOR 8 WK, Promoter: NONE USED): 4/24 (17%), 0/18 (0%), 100%, p<0.05
- tumour outcome (control, treated, inhibition, significance) (Carcinogen: 4-NITROQUINOLINE-1-OXIDE, 56-57-5, Dose [Inhibitor]: 0, 100 PPM IN DIET FOR 10 WK BEGINNING PRIOR TO CARCINOGEN TREATMENT (STUDY DURATION: 32 WK), Route [Inhibitor]: ORAL, Species: RAT, Strain/Sex: F344/MALE, Target Tissue: Type of Lesion: TONGUE: SQUAMOUS CELL CARCINOMA, Dose [Carcinogen]: 20 PPM IN DRINKING WATER FOR 8 WK, Promoter: NONE USED): 13/24 (54%), 0/18 (0%), 100%, p<0.05
- tumour outcome (control, treated, inhibition, significance) (Carcinogen: 4-NITROQUINOLINE-1-OXIDE, 56-57-5, Dose [Inhibitor]: 0, 100 PPM IN DIET FOR 22 WK BEGINNING 1 WK POST CARCINOGEN TREATMENT (STUDY DURATION: 32 WK), Route [Inhibitor]: ORAL, Species: RAT, Strain/Sex: F344/MALE, Target Tissue: Type of Lesion: TONGUE: PAPILLOMA, Dose [Carcinogen]: 20 PPM IN DRINKING WATER FOR 8 WK, Promoter: NONE USED): 4/24 (17%), 0/20 (0%), 100%, p<0.05
- tumour outcome (control, treated, inhibition, significance) (Carcinogen: 4-NITROQUINOLINE-1-OXIDE, 56-57-5, Dose [Inhibitor]: 0, 100 PPM IN DIET FOR 22 WK BEGINNING 1 WK POST CARCINOGEN TREATMENT (STUDY DURATION: 32 WK), Route [Inhibitor]: ORAL, Species: RAT, Strain/Sex: F344/MALE, Target Tissue: Type of Lesion: TONGUE: SQUAMOUS CELL CARCINOMA, Dose [Carcinogen]: 20 PPM IN DRINKING WATER FOR 8 WK, Promoter: NONE USED): 13/24 (54%), 0/20 (0%), 100%, p<0.05
- tumour outcome (control, treated, inhibition, significance) (Carcinogen: N-BUTYL-N-(4-HYDROXYBUTYL)NITROSAMINE, 3817-11-6, Dose [Inhibitor]: 0, 50 PPM IN DRINKING WATER FOR 2O WK BEGINNING 1 WK POST CARCINOGEN TREATMENT (STUDY DURATION: 41 WK), Route [Inhibitor]: ORAL, Species: MOUSE, Strain/Sex: ICR/MALE, Target Tissue: Type of Lesion: URINARY BLADDER: CARCINOMA, Dose [Carcinogen]: 250 PPM IN DRINKING WATER FOR 20 WK, Promoter: NONE USED): 15/36 (42%), 6/33 (18%), 57%, p<0.05
- tumour outcome (control, treated, inhibition, significance) (Carcinogen: N-BUTYL-N-(4-HYDROXYBUTYL)NITROSAMINE, 3817-11-6, Dose [Inhibitor]: 0, 50 PPM IN DRINKING WATER FOR 20 WK BEGINNING 1 WK POST CARCINOGEN TREATMENT (STUDY DURATION: 41 WK), Route [Inhibitor]: ORAL, Species: MOUSE, Strain/Sex: ICR/MALE, Target Tissue: Type of Lesion: URINARY BLADDER: PAPILLOMA, Dose [Carcinogen]: 250 PPM IN DRINKING WATER FOR 20 WK, Promoter: NONE USED): 2/36 (6%), 4/33 (12%), -100%, not significant

Compound: O=C(O)c1ccc(-c2c3nc(c(-c4ccc(C(=O)O)cc4)c4ccc([nH]4)c(-c4ccc(C(=O)O)cc4)c4ccc([nH]4)c(-c4ccc(C(=O)O)cc4)c4nc2C=C4)C=C3)cc1
- tumour outcome (control, treated, inhibition, significance) (Carcinogen: 7,12-DIMETHYLBENZ[A]ANTHRACENE [57-97-6], Dose [Inhibitor]: 0, 0.1% IN 0.2 ML DMSO-ACETONE (15:85, V/V) 2X/WK FOR 30 WK 10 MIN PRIOR TO PROMOTER DOSE (STUDY DURATION: 31 WK), Route [Inhibitor]: DERMAL, Species: MOUSE, Strain/Sex: ICR/FEMALE, Target Tissue: Type of Lesion: SKIN: PAPILLOMA, Dose [Carcinogen]: 0.2 UMOL ONCE (STUDY DURATION: 31 WK), Promoter: 12-O-TETRADECANOYLPHORBOL-13-ACETATE [16561-29-8]): 100%, 73%, 27%, not calculated
